Data: PubChem BioAssay AID1259407 (Chemical Carcinogenesis Research Information System (CCRIS), 2018)
The source made the active and inactive calls. How the calls were made is not given here.

Tested on: CCRIS mutagenicity, Ames/micronucleus/aberration tests
Assay: CCRIS mutagenicity studies
[1] = Test System: AMES SALMONELLA TYPHIMURIUM, Strain/Indicator: TA98, Metabolic Activation: HAMSTER, LIVER, S-9, AROCLOR 1254, Method: STANDARD PLATE
[2] = Test System: AMES SALMONELLA TYPHIMURIUM, Strain/Indicator: TA100, Metabolic Activation: HAMSTER, LIVER, S-9, AROCLOR 1254, Method: STANDARD PLATE
[3] = Test System: AMES SALMONELLA TYPHIMURIUM, Strain/Indicator: TA98, Metabolic Activation: NONE, Method: PREINCUBATION
[4] = Test System: AMES SALMONELLA TYPHIMURIUM, Strain/Indicator: TA100, Metabolic Activation: NONE, Method: PREINCUBATION
[5] = Test System: AMES SALMONELLA TYPHIMURIUM, Strain/Indicator: TA1535, Metabolic Activation: HAMSTER, LIVER, S-9, AROCLOR 1254, Method: STANDARD PLATE
[6] = Test System: AMES SALMONELLA TYPHIMURIUM, Strain/Indicator: TA1535, Metabolic Activation: NONE, Method: STANDARD PLATE

Measured: mutagenic call

O=C(CCCN1CC=C(n2c(=O)[nH]c3ccccc32)CC1)c1ccc(F)cc1
inactive: End Point: IN VITRO CHROMOSOMAL ABERRATIONS, Test System: HUMAN LYMPHOCYTES, Metabolic Activation: NONE inactive; negative

CN(C)c1ccc(N=Nc2cccc3ccccc23)cc1
active: [1] active; positive | Test System: AMES SALMONELLA TYPHIMURIUM, Strain/Indicator: TA98, Metabolic Activation: HAMSTER, LIVER, S-9, Method: PREINCUBATION (PRIVAL METHOD) active; positive | Test System: AMES SALMONELLA TYPHIMURIUM, Strain/Indicator: TA98, Metabolic Activation: RAT, LIVER, S-9, AROCLOR 1254, HAMSTER, LIVER, S-9, AROCLOR 1254, Method: STANDARD PLATE active; positive | [2] active; positive | Test System: AMES SALMONELLA TYPHIMURIUM, Strain/Indicator: TA100, Metabolic Activation: HAMSTER, LIVER, S-9, Method: PREINCUBATION (PRIVAL METHOD) active; positive | Test System: AMES SALMONELLA TYPHIMURIUM, Strain/Indicator: TA1535, Metabolic Activation: RAT, LIVER, S-9, AROCLOR 1254, HAMSTER, LIVER, S-9, AROCLOR 1254, Method: STANDARD PLATE active; positive | Test System: AMES SALMONELLA TYPHIMURIUM, Strain/Indicator: TA1538, Metabolic Activation: RAT, LIVER, S-9, AROCLOR 1254, HAMSTER, LIVER, S-9, AROCLOR 1254, Method: STANDARD PLATE active; positive | Test System: MOUSE LYMPHOMA, Strain/Indicator: L5178Y (TK+/TK-), Metabolic Activation: RAT, LIVER, S-9, AROCLOR 1254, Method: SUSPENSION/PLATE active; positive. reevaluation of results: positive | Test System: Mouse lymphoma, Strain/Indicator: L5178Y (tk+/tk-), Metabolic Activation: None, Method: Suspension/plate active; positive

COc1c(C=O)c(O)cc2c1C(=O)c1ccccc1C2=O
inactive: [3] inactive; negative | Test System: AMES SALMONELLA TYPHIMURIUM, Strain/Indicator: TA98, Metabolic Activation: RAT, LIVER, S-9, PCB, Method: PREINCUBATION inactive; negative | [4] inactive; negative | Test System: AMES SALMONELLA TYPHIMURIUM, Strain/Indicator: TA100, Metabolic Activation: RAT, LIVER, S-9, PCB, Method: PREINCUBATION inactive; negative

CCCCCCCCCCCCCCCCCCCC
inactive: Test System: AMES SALMONELLA TYPHIMURIUM, Strain/Indicator: TA97, Metabolic Activation: HAMSTER, LIVER, S-9, AROCLOR 1254 (10 OR 30%), Method: PREINCUBATION inactive; negative | Test System: AMES SALMONELLA TYPHIMURIUM, Strain/Indicator: TA97, Metabolic Activation: NONE, Method: PREINCUBATION inactive; negative | Test System: AMES SALMONELLA TYPHIMURIUM, Strain/Indicator: TA97, Metabolic Activation: RAT, LIVER, S-9, AROCLOR 1254 (10 OR 30%), Method: PREINCUBATION inactive; negative | Test System: AMES SALMONELLA TYPHIMURIUM, Strain/Indicator: TA98, Metabolic Activation: HAMSTER, LIVER, S-9, AROCLOR 1254 (10 OR 30%), Method: PREINCUBATION inactive; negative | [3] inactive; negative | Test System: AMES SALMONELLA TYPHIMURIUM, Strain/Indicator: TA98, Metabolic Activation: RAT, LIVER, S-9, AROCLOR 1254 (10 OR 30%), Method: PREINCUBATION inactive; negative | Test System: AMES SALMONELLA TYPHIMURIUM, Strain/Indicator: TA100, Metabolic Activation: HAMSTER, LIVER, S-9, AROCLOR 1254 (10 OR 30%), Method: PREINCUBATION inactive; negative | [4] inactive; negative | Test System: AMES SALMONELLA TYPHIMURIUM, Strain/Indicator: TA100, Metabolic Activation: RAT, LIVER, S-9, AROCLOR 1254 (10 OR 30%), Method: PREINCUBATION inactive; negative | Test System: AMES SALMONELLA TYPHIMURIUM, Strain/Indicator: TA1535, Metabolic Activation: HAMSTER, LIVER, S-9, AROCLOR 1254 (10 OR 30%), Method: PREINCUBATION inactive; negative | Test System: AMES SALMONELLA TYPHIMURIUM, Strain/Indicator: TA1535, Metabolic Activation: NONE, Method: PREINCUBATION inactive; negative | Test System: AMES SALMONELLA TYPHIMURIUM, Strain/Indicator: TA1535, Metabolic Activation: RAT, LIVER, S-9, AROCLOR 1254 (10 OR 30%), Method: PREINCUBATION inactive; negative | Test System: AMES SALMONELLA TYPHIMURIUM, Strain/Indicator: TA1537, Metabolic Activation: HAMSTER, LIVER, S-9, AROCLOR 1254 (30%), Method: PREINCUBATION inactive; negative | Test System: AMES SALMONELLA TYPHIMURIUM, Strain/Indicator: TA1537, Metabolic Activation: NONE, Method: PREINCUBATION inactive; negative | Test System: AMES SALMONELLA TYPHIMURIUM, Strain/Indicator: TA1537, Metabolic Activation: RAT, LIVER, S-9, AROCLOR 1254 (30%), Method: PREINCUBATION inactive; negative

C=C1CC/C=C(/C)CC[C@@H]2[C@@H]1CC2(C)C
inactive: [1] inactive; negative | Test System: AMES SALMONELLA TYPHIMURIUM, Strain/Indicator: TA98, Metabolic Activation: NONE, Method: STANDARD PLATE inactive; negative | Test System: AMES SALMONELLA TYPHIMURIUM, Strain/Indicator: TA98, Metabolic Activation: RAT, LIVER, S-9, AROCLOR 1254, Method: STANDARD PLATE inactive; negative | [2] inactive; negative | Test System: AMES SALMONELLA TYPHIMURIUM, Strain/Indicator: TA100, Metabolic Activation: NONE, Method: STANDARD PLATE inactive; negative | Test System: AMES SALMONELLA TYPHIMURIUM, Strain/Indicator: TA100, Metabolic Activation: RAT, LIVER, S-9, AROCLOR 1254, Method: STANDARD PLATE inactive; negative | Test System: AMES SALMONELLA TYPHIMURIUM, Strain/Indicator: TA102, Metabolic Activation: HAMSTER, LIVER, S-9, AROCLOR 1254, Method: STANDARD PLATE inactive; negative | Test System: AMES SALMONELLA TYPHIMURIUM, Strain/Indicator: TA102, Metabolic Activation: NONE, Method: STANDARD PLATE inactive; negative | Test System: AMES SALMONELLA TYPHIMURIUM, Strain/Indicator: TA102, Metabolic Activation: RAT, LIVER, S-9, AROCLOR 1254, Method: STANDARD PLATE inactive; negative | [5] inactive; negative | [6] inactive; negative | Test System: AMES SALMONELLA TYPHIMURIUM, Strain/Indicator: TA1535, Metabolic Activation: RAT, LIVER, S-9, AROCLOR 1254, Method: STANDARD PLATE inactive; negative | Test System: AMES SALMONELLA TYPHIMURIUM, Strain/Indicator: TA1537, Metabolic Activation: HAMSTER, LIVER, S-9, AROCLOR 1254, Method: STANDARD PLATE inactive; negative | Test System: AMES SALMONELLA TYPHIMURIUM, Strain/Indicator: TA1537, Metabolic Activation: NONE, Method: STANDARD PLATE inactive; negative | Test System: AMES SALMONELLA TYPHIMURIUM, Strain/Indicator: TA1537, Metabolic Activation: RAT LIVER, S-9, AROCLOR 1254, Method: STANDARD PLATE inactive; negative | Test System: MOUSE LYMPHOMA, Strain/Indicator: L5178Y (TK+/TK-), Metabolic Activation: NONE, Method: SUSPENSION/PLATE inactive; positive; reevaluation of results: negative
equivocal: Test System: Mouse lymphoma, Strain/Indicator: L5178Y (tk+/tk-), Metabolic Activation: Rat, Liver, S-9, Aroclor 1254, Method: Suspension/plate

COc1cccc(CN(C)N=O)c1
active: [5] active; positive
inactive: [6] inactive; negative
